Measurements: patent US8372443B2, “Methods and compositions for the treatment and prevention of citrus greening disease” (priority 2008, dated 2013)

Key:
D. citri [1] = test: Y-tube olfactometer test; format: in vivo, Diaphorina citri
Experimental: In order to confirm the repellent effect of synthetic DMDS against D. citri, an additional study using a Y-tube olfactometer (ARS, Gainesville, Fla., USA) was conducted. The Y-tube consisted of a central stem (13.5 cm long, 2.4 cm o.d.) with two lateral arms (5.75 cm long, 2.4 cm o.d.). The lateral arms were connected to extending glass tubes (14.5 cm long, 1.9 cm o.d.) with inlayed sieves (5.25 cm away from connection) to prevent insect escape and serve as an end point of the lateral arms. Charcoal-filtered laboratory air was passed from an air pump, into each of the extending arms of the olfactometer at a rate 100 mL/min. […]
Adult psyllids that oriented to any of the four arms of the olfactometer were categorized as attracted and those that remained in the olfactometer's central orifice (release point) until the 1.5 h experimental period elapsed as repelled. […] Subsequently, data obtained for D. citri orientation to the four arms (two volatile sources and two laboratory air) was analyzed for each treatment using one-way step-wise ANOVA followed by Tukey's HSD test (P<0.05, SAS Institute Inc., 2003). The data obtained from the Y-tube olfactometer bioassays was analyzed using Chi-square (χ^2) analyses (Parker, 1979) to compare between the numbers of attracted versus repelled D. citri (P<0.05).

D. citri [2] = test: 4-choice olfactometer behavioral bioassay; format: in vivo, Diaphorina citri; conditions: for t (percentages of repelled versus attracted D. citri, student's t-test): laboratory air, 1.5 h
Experimental: Adult D. citri used for the behavioral bioassays were drawn from a continuously reared culture at the University of Florida Citrus Research and Education Center (Lake Alfred, USA) and established in 2000 from field populations in Polk Co., FL, USA (28.0′N, 81.9′W) prior to the discovery of citrus greening disease in FL. This culture is maintained on sour orange (Citrus aurantium L.) and ‘Hamlin’ orange [C. sinensis (L.)] seedlings at 27±1° C., 63±2% RH, and L14:D10 photoperiod. Freshly emerged unsexed adult psyllids were first placed on citrus seedlings in Plexiglass cages for up to 7 d for sexual maturation prior to use in experiments.
Husbandry methods for the ‘white’ guava and ‘Hamlin’ citrus plants used in these investigations have been described previously (Rouseff et al., 2008). ‘Hamlin’ citrus was selected for analysis because it is one of the most highly cultivated citrus varieties in Florida. Half of the samples were gently crushed (using a clean glass rod) to simulate plant damage and the remaining half were not crushed. All samples ([…] leaf flush/sample) were wrapped in Kim wipes (Kimberly-Clark®, Ontario, Canada) and placed in 2.5 cm×12.5 cm extending glass tubes of a 4-choice olfactometer [Analytical Research Systems, ARS (Gainesville, Fla.)], for behavioral investigations described below.
Behavioral responses of D. citri to citrus volatiles with or without guava or DMDS volatiles were quantified using a 4-choice olfactometer (Analytical Research Systems, Inc. (ARS), Gainesville, Fla., USA) based on the design of Pettersson (1970), Vet et al. (1983) and Kalule & Wright (2004). The olfactometer consists of a 5 cm×30 cm×30 cm stage on four 2.5 cm×15 cm legs with extending orifices on four sides of the stage. Charcoal-purified and humidified air was drawn through these arms via a vacuum pump creating four potential odor fields. Air pulled through the olfactometer was evacuated through a central orifice on the floor of the stage. During each experimental run, two of the four orifices on the sides of the stage were designated for odor stimuli treatments and the two others were left as blank. […] The effect of repellent chemicals was measured by adding guava leaves or a formulation of synthetic DMDS to citrus flush in two arms of the olfactometer as described below. […]
The behavioral response of adult D. citri to clean laboratory air was first investigated to 4 blank arms of the olfactometer as a negative control to ensure no positional bias. Thereafter, D. citri response was measured to citrus leaf volatiles with and without volatiles from guava leaves or synthetic DMDS. […]

[3] = tested on: Mediterranean fruit fly, Ceratitis capitata; conditions: literature reference 23; cited from earlier work

CSSC [DMDS, dimethyl disulfide]
effect on D. citri's response to citrus flush volatiles (D. citri [1]; Y-tube first experiment: 100 μL DMDS solution in mineral oil plus ~3.5 g citrus flush in both arms versus citrus alone, χ2=2.57, P=0.109): significantly inhibited | percentage of D. citri choosing the arm releasing clean air versus DMDS (D. citri [1]; Y-tube second experiment: DMDS in mineral oil in one arm, clean laboratory air in the other, 300 s, χ2=5.0, P=0.025): ~75% | repellence of adult D. citri at the selected dosage (preliminary investigation) (D. citri [2]; 100 μL of a 4.3 μg/μL (w/v) solution in mineral oil on cotton wick, compared with lower dosages on a log scale (data not shown)): optimally repel | t (percentages of repelled versus attracted D. citri, student's t-test) (D. citri [2]; Experiment 2: arms laboratory air, intact citrus, DMDS, 100 μL of 4.3 μg/μL DMDS in mineral oil): 3.05 | t (percentages of repelled versus attracted D. citri, student's t-test) (D. citri [2]; Experiment 3: arms laboratory air, crushed citrus, DMDS): 7.23 | t (percentages of repelled versus attracted D. citri, student's t-test) (D. citri [2]; Experiment 4: arms laboratory air, mineral oil, DMDS (DMDS only)): 6.25

CC1=CC[C@H]2[C@H]3[C@@H]1[C@]2(C)CC[C@H]3C(C)C [α-Copaene]
reported behavioural effect on Mediterranean fruit fly [3]: attractant
